Our source for the IC50 values is patent US9725462B2, “Pyridopyrimidine derivatives as protein kinase inhibitors” (Merck Patent GmbH, priority 2012, dated 2017).

The target of this assay is T1, SYK (Homo sapiens, UniProt P43405).
T1 construct: 2.5 nM SYK, 400 nM Biotin-Aha-Aha-KEDPDYEWPSAKK
The experiment in a line: SYK Flash Plate Assay (enzyme assay). Conditions: Syk inhibition. The assay is classed as biochemical. The source says:
The following abbreviations refer respectively to the definitions below: • aq (aqueous), h (hour), g (gram), L (liter), mg (milligram), MHz (Megahertz), min. (minute), mm (millimeter), mmol (millimole), mM (millimolar), m.p. (melting point), eq (equivalent), mL (milliliter), L (microliter), ACN (acetonitrile), AcOH (acetic acid), CDCl3 (deuterated chloroform), CD3OD (deuterated methanol), CH3CN (acetonitrile), c-hex (cyclohexane), DCC (dicyclohexyl carbodiimide), DCM (dichloromethane), DIC (diisopropyl carbodiimide), DIEA (diisopropylethyl-amine), DMF (dimethylformamide), DMSO (dimethylsulfoxide), DMSO-d6 (deuterated dimethylsulfoxide), EDC (1-(3-dimethyl-amino-propyl)-3-ethylcarbodiimide), ESI (Electro-spray ionization), EtOAc (ethyl acetate), Et2O (diethyl ether), EtOH (ethanol), HATU (dimethylamino-([1,2,3]triazolo[4,5-b]pyridin-3-yloxy)-methylene]-dimethyl-ammonium hexafluorophosphate), HPLC (High Performance Liquid Chromatography), i-PrOH (2-propanol), K2CO3 (potassium carbonate), LC (Liquid Chromatography), MeOH (methanol), MgSO4 (magnesium sulfate), MS (mass spectrometry), MTBE (Methyl tert-butyl ether), NaHCO3 (sodium bicarbonate), NaBH4 (sodium borohydride), NMM (N-methyl morpholine), NMR (Nuclear Magnetic Resonance), PyBOP (benzotriazole-1-yl-oxy-tris-pyrrolidino-phosphonium hexafluorophosphate), RT (room temperature), Rt (retention time), SPE (solid phase extraction), TBTU (2-(1-H-benzotriazole-1-yl)-1,1,3,3-tetramethyluromium tetrafluoro borate), TEA (triethylamine), TFA (trifluoroacetic acid), THF (tetrahydrofuran), TLC (Thin Layer Chromatography), UV (Ultraviolet). Description of the In Vitro Assays SYK Flash Plate Assay
The kinase assay is performed either as 384-well Flashplate assay (for e.g. Topcount measurement) or as 384-well Image-Flashplate assay (for LEADseeker measurement).
2.5 nM SYK, 400 nM Biotin-Aha-Aha-KEDPDYEWPSAKK
and 10 μM ATP (spiked with 0.3 μCi 33P-ATP/well) are incubated in a total volume of 50 μl (60 mM Hepes, 10 mM MgCl2, 1.2 mM Dithiothreitol, 0.02% Brij35, 0.1% BSA, pH 7.5) with or without test compound for 1 hours at 30° C. The reaction is stopped with 25 μl 200 mM EDTA. After 30 Min at 30° C. the liquid is removed and each well washed thrice with 100 μl 0.9% sodium chloride solution. Non-specific reaction is determined in presence of 0.1 μM Staurosporine. Radioactivity is measured with Topcount (when using Flashplates) or with LEADseeker (when using Image-Flashplates) respectively. Results (e.g. IC50-values) are calculated with program tools provided by the IT-department (e.g. Symyx Assay Explorer, Genedata Screener). In Vivo Assays CIA
`N#Cc1ccc2c(-c3cncc4cnc(NC5CCCCC5)nc34)c[nH]c2c1` [Compound A80, 3-(2-cyclohexylamino-pyrido[4,3-d]pyrimidin-8-yl)-1H-indole-6-carbonitrile] yielded a half-maximal inhibitory concentration (IC50) of 1 to 50 µM.

For `N[C@H]1CCCC[C@H]1Nc1ncc2cncc(-c3cc4cccc(F)c4[nH]3)c2n1` [Compound A81], the 50% inhibitory concentration (IC50) was in the range of 0.1 to 1 µM.

Take `N[C@H]1CCCC[C@H]1Nc1ncc2c(C(F)F)ncc(-c3c[nH]c4cc(C(F)(F)F)ccc34)c2n1` [Compound A82]: the IC50 was < 0.1 µM.

On to `N#Cc1ccc2c(-c3cnc(C(F)F)c4cnc(N[C@@H]5CCCC[C@@H]5N)nc34)c[nH]c2c1` [Compound A87, 3-[2-((1R,2S)-2-amino-cyclohexylamino)-5-difluoromethyl-pyrido[4,3-d]-pyrimidin-8-yl]-1H-indole-6-carbonitrile], for which the IC50 was < 0.1 µM.

Regarding `Cn1cc(-c2cnc(C(F)F)c3cnc(N[C@@H]4CCCC[C@@H]4N)nc23)cn1` [Compound A91, (1R,2S)—N-[5-difluoromethyl-8-(1-methyl-1H-pyrazol-4-yl)-pyrido-[4,3-d]pyrimidin-2-yl]-cyclohexane-1,2-diamine], the half-inhibitory concentration (IC50) lay in the range of 0.1 to 1 µM.

One may read the IC50 as the concentration that gives 50% inhibition. Read a high IC50 as weaker potency in that assay.
